One experiment deals with IRAK4 kinase (Homo sapiens (Human), UniProt Q9NWZ3). The experiment in a line: IRAK4 kinase activity test (KinEASE-STK S1 HTRF kit). Type of experiment: biochemical. To be noted: 2.5 nM IRAK4 kinase, 7 μM ATP, 37° C. 120 min. The gist of the method: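 Human IRAK4 (2.5 nM) with 1 μM biotinylated peptide substrate and 7 μM ATP, incubated 120 min at 37 °C. HTRF read-out (Eu anti-phospho-Ser/Thr antibody, XL665-streptavidin; 665/620 nm ratio) after 1 h at room temperature. IC50 from inhibition relative to control by non-linear fit of log concentration.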
A general note: Time-resolved FRET reads energy transfer from a long-lived donor to a nearby acceptor.

For experiment [1], the target named is IRAK4 protein in THP-1 cells (Homo sapiens (Human), UniProt Q9NWZ3). The experiment in a line: Degradation of IRAK4 in THP-1 cells, human IRAK4 AlphaLISA assay. Type of experiment: cell-based. To be noted: 24 h incubation. An outline of the steps: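 THP-1 cells, after overnight plating, exposed 24 h at 37 °C to compound at 0.03-3000 nM final. Lysate IRAK4 read by Western blot and by AlphaLISA (acceptor beads 10 μg/mL, biotin anti-IRAK4 1 nM, donor beads 40 μg/mL, 23 °C). DC50 and Dmax from log concentration-response fit.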
In general terms: Alpha assays give light when donor and acceptor beads are brought close together.

Each structure is given as a SMILES string.

Chain of IRAK4 kinase (Q9NWZ3 whole entry): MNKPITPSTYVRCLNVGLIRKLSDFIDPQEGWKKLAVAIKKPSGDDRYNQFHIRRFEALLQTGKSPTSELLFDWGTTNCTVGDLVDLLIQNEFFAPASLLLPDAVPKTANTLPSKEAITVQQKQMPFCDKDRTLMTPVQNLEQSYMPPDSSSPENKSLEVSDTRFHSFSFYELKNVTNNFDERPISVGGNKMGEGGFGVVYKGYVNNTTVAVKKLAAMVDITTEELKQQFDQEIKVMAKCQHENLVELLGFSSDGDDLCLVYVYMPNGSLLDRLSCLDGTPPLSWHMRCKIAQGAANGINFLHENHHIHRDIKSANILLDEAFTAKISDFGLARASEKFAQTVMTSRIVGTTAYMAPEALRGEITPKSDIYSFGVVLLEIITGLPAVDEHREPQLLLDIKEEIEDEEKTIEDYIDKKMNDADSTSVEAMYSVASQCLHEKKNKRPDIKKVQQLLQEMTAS
Chain of IRAK4 protein in THP-1 cells (Q9NWZ3 whole entry): as above

Regarding `COc1ccc(C(=O)N2CCC3(CCN(CCCCN4CCC(n5cc(NC(=O)c6cnn7ccc(N8CCOCC8)nc67)c(C(F)F)n5)CC4)CC3)CC2)cc1N1CCC(=O)NC1=O` [Example 61, N-(3-(difluoromethyl)-1-(1-(4-(9-(3-(2,4-dioxotetrahydropyrimidin-1(2H)-yl)-4-methoxybenzoyl)-3,9-diazaspiro[5.5]undecan-3-yl)butyl)piperidin-4-yl)-1H-pyrazol-4-yl)-5-morpholinopyrazolo[1,5-a]pyrimidine-3-carboxamide], half-maximal inhibition against IRAK4 kinase (IC50) was put at 9.06 nM. Moreover, in experiment [1], half-maximal degradation (DC50) was put at 29 nM and the Dmax – broadly, the largest share of the target that was removed – turned out to be 87.9%.

As to `O=C1CCN(c2cc(C(=O)N3CCC4(CCC(CN5CCC(n6cc(NC(=O)c7cnn8ccc(N9CCS(=O)(=O)CC9)nc78)c(C(F)F)n6)CC5)CC4)CC3)ccc2Cl)C(=O)N1` [Example 63, N-(1-(1-((3-(4-chloro-3-(2,4-dioxotetrahydropyrimidin-1(2H)-yl)benzoyl)-3-azaspiro[5.5]undecan-9-yl)methyl)piperidin-4-yl)-3-(difluoromethyl)-1H-pyrazol-4-yl)-5-(1,1-dioxothiomorpholinyl)pyrazolo[1,5-a]pyrimidine-3-carboxamide], the IC50 (usually the concentration needed to halve the response being measured) against IRAK4 kinase was 36.2 nM. Also, in experiment [1], the DC50 – broadly, the concentration at which degradation of the target reaches its halfway point – turned out to be 9.18 nM and the Dmax was determined as 79.3%.

Compound `N[C@H]1CCCN(c2ccn3ncc(C(=O)Nc4cn(C5CCN(CC6CCC7(CC6)CCN(C(=O)c6ccc(Cl)c(N8CCC(=O)NC8=O)c6)CC7)CC5)nc4C(F)F)c3n2)C1` [Example 64, (S)-5-(3-aminopiperidin-1-yl)-N-(1-(1-((3-(4-chloro-3-(2,4-dioxotetrahydropyrimidin-1(2H)-yl)benzoyl)-3-azaspiro[5.5]undecan-9-yl)methyl)piperidin-4-yl)-3-(difluoromethyl)-1H-pyrazol-4-yl)pyrazolo[1,5-a]pyrimidine-3-carboxamide] had an IC50 against IRAK4 kinase of 5.93 nM. In experiment [1], this compound yielded a DC50 of 7.47 nM and a Dmax of 96.1%.

The values are drawn from patent US20240368194A1, “IRAK4 DEGRADATION AGENT, AND PREPARATION METHOD THEREFOR AND USE THEREOF” (SHANGHAI LEADINGTAC PHARMACEUTICAL CO. LTD., priority 2021, published 2024).
